Assay [1] deals with HCT-116. Briefly: cells. The following applies: Homo sapiens, HCT-116, 72 h.
Description: (§1) Antiproliferative activity against human HCT116 cells after 72 hrs by MTT assay
For the next assay, the system named is ZR-75-30. Briefly: Antiproliferative activity against human ZR-7530 cells after 72 hrs by MTT assay. Format: functional, cell-based.
The subject of assay [2] is A549.
Description: (§2) Antiproliferative activity against human A549 cells after 72 hrs by MTT assay
Assay [3] is filed under the species Homo sapiens. Briefly: Inhibition of human topoisomerase-2 assessed as reduction in relaxation of supercoiled pBR322 DNA at 100 uM after 30 mins by ethidium bromide staining based agarose gel electrophoresis method.
Assay [4] can be described thus: Inhibition of human topoisomerase-2 assessed as reduction in relaxation of supercoiled pBR322 DNA after 30 mins by ethidium bromide staining based agarose gel electrophoresis method.
Assay [5] has as its system HCT-116.
Description: as §1
The subject of assay [6] is A549. Briefly: cells. The following applies: Homo sapiens, A549, 72 h.
Description: as §2
For assay [7], the species on record is Homo sapiens. Briefly: Inhibition of human topoisomerase-2 assessed as reduction in relaxation of supercoiled pBR322 DNA at 50 uM after 30 mins by ethidium bromide staining based agarose gel electrophoresis method.
The mark [8] stands for this setting: Homo sapiens, ZR-75-30, 72 h, read-out: IC50.

Active and inactive are the calls of the source. The rule behind the calls is not given here.

Usually IC50 stands for the concentration that gives 50% inhibition. On to `C=CCn1c(CN2c3ccccc3Sc3ccccc32)nnc1SCC(=O)O`, for which the IC50 in the assay with HCT-116 [1] was 32 µM; in the assay on ZR-75-30 (setting [8]), 15 µM; with A549 [2] it was “Not Active”.
As to `CC(C)(O)C#Cc1cc(C(=O)NCCc2ccc(S(N)(=O)=O)cc2)c2oc(C(C)(C)O)cc2c1`, the inhibition entry in the assay listed under Homo sapiens [3] was “Active”. In addition, the IC50 is 62 µM in the assay with ZR-75-30 (setting [8]), “Not Active” in the assay on A549 [2], 349 µM in assay [4] and “Not Active” with HCT-116 [5].
`O=C(O)c1ccc2c(c1)C(=O)N(c1ccc(C(=O)OCC(=O)c3ccccc3)cc1)C2=O`: the inhibition result in the assay filed under Homo sapiens [3] is “Active”. The IC50 result in the assay with ZR-75-30 (zr-75-30), with A549 [2] and with HCT-116 [5] was “Not Active” each time.
Turning to `NS(=O)(=O)c1ccc(NC(=O)CSc2nnc3ccc4ccccc4n23)cc1`, the IC50 result with ZR-75-30 (zr-75-30), with A549 [2] and in the assay on HCT-116 [5] was “Not Active” throughout.
Consider `COc1ccc(-c2cc(-c3ccccc3)c(C#N)c(SCC(=O)O)n2)cc1`, for which the results for the half-inhibitory concentration (IC50) in the assay with A549 [6], in the assay on HCT-116 [1] and in the assay on ZR-75-30 (setting [8]) were 37 µM, 10 µM and 14 µM, respectively. In addition, in the assay filed under Homo sapiens [3], the inhibition result was “Active”.
As to `O=C(O)CCSc1nnc(-c2cccnc2)n1CCc1ccccc1`, the 50% inhibitory concentration (IC50) entry in the assay on ZR-75-30 (zr-75-30), in the assay with A549 [2] and in the assay with HCT-116 [5] was “Not Active” in each case.
Take `N#Cc1c(-c2ccc(F)cc2)cc(-c2ccccc2)nc1SCC(=O)NCC(=O)O`: the inhibition result in the assay filed under Homo sapiens [3] was “Active”. Also, the concentration for half-maximal inhibition (IC50) entry in the assay with ZR-75-30 (zr-75-30), in the assay on A549 [2] and in the assay on HCT-116 [5] was “Not Active” throughout.
With `O=C(O)CCc1nn2c3ccccc3n(Cc3ccccc3)c2nc1=O`, the inhibition result in the assay listed under Homo sapiens [3] is “Active”. Further, the 50% inhibitory concentration (IC50) result in the assay with ZR-75-30 (zr-75-30), with A549 [2] and in the assay on HCT-116 [5] was “Not Active” each time.
For `COc1ccc(C(=O)Cn2c(=N)n(Cc3ccc(C)cc3)c3ccccc32)cc1`, the IC50 in the assay on A549 [6] is 1.2 µM; in the assay on HCT-116 [1] it was 1 µM; in the assay on ZR-75-30 (setting [8]) it was 1.2 µM. In addition, the inhibition result in the assay filed under Homo sapiens [3] is “Active”.
Consider `COc1cc([C@@H]2c3cc4c(cc3[C@@H](O[C@@H]3O[C@@H]5CO[C@@H](C)O[C@H]5[C@H](O)[C@H]3O)[C@H]3COC(=O)[C@H]23)OCO4)cc(OC)c1O` [ETOPOSIDE], for which the 50% inhibitory concentration (IC50) is 68 µM with A549 [6], 1.1 µM with HCT-116 [1], 1.5 µM with ZR-75-30 (setting [8]) and 184 µM in assay [4]. Also, the inhibition result in the assay filed under Homo sapiens [7] is “inactive”. Further, in the assay filed under Homo sapiens [3], the inhibition entry is “Active”.
As to `O=C(O)COc1ccc(/C=N/n2c(COc3ccccc3)nc3ccccc3c2=O)cc1`, the IC50 with HCT-116 [1] is 54 µM; in the assay on ZR-75-30 (setting [8]), 58 µM; with A549 [2], “Not Active”. In the assay listed under Homo sapiens [3], the inhibition entry was “Active”.
Take `Cc1cc(C(=O)O)ccc1-c1ccc(/C=c2/sc3nc4ccccc4n3c2=O)o1`: the inhibition entry in the assay listed under Homo sapiens [3] was “Active”. For the same molecule, the half-maximal inhibitory concentration (IC50) result was “Not Active” in the assay with ZR-75-30 (zr-75-30), “Not Active” in the assay on A549 [2], 41 µM in assay [4] and “Not Active” with HCT-116 [5].

The record behind these values is ChEMBL document CHEMBL4257539, “Identification of potent catalytic inhibitors of human DNA topoisomerase II by structure-based virtual screening” (Medchemcomm, 2018).
